Test results from ChEMBL document CHEMBL1201862, “PubChem BioAssay data set” (2004).
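Each compound was tested at five concentrations against cells in 96-well plates for 48 hours. GI50 marks 50% less growth.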 Active and inactive are the calls of the source. Cut-off read from the data, not from the text of the source: active = GI50 up to about 1.1 µM and inactive = higher.

Key:
Experiment in all cases: NCI-60 cell line screen, 48 h
786-0 = tested on: 786-0
A498 = tested on: A498
ACHN = tested on: ACHN
CCRF-CEM = tested on: CCRF-CEM
K562 = tested on: K562
NCI-H226 = tested on: NCI-H226
NCI-H23 = tested on: NCI-H23
NCI-H460 = tested on: NCI-H460
OVCAR-8 = tested on: OVCAR-8
RXF 393 = tested on: RXF 393
SF-268 = tested on: SF-268
SK-MEL-28 = tested on: SK-MEL-28
SN12C = tested on: SN12C
SNB-19 = tested on: SNB-19
SNB-75 = tested on: SNB-75
UACC-257 = tested on: UACC-257
RPMI-8226 = tested on: RPMI-8226

Structure (SMILES)	GI50 (786-0)	GI50 (A498)	GI50 (ACHN)	GI50 (CCRF-CEM)	GI50 (K562)	GI50 (NCI-H226)	GI50 (NCI-H23)	GI50 (NCI-H460)	GI50 (OVCAR-8)	GI50 (RXF 393)	GI50 (SF-268)	GI50 (SK-MEL-28)	GI50 (SN12C)	GI50 (SNB-19)	GI50 (SNB-75)	GI50 (UACC-257)	GI50 (RPMI-8226)
CC1(C)CCCC2(C)C3C(O)CC2(C)C(O)C31 (centres undefined)	< 0.01 µM (active)	> 100 µM (inactive)	> 100 µM (inactive)	> 100 µM (inactive)	> 100 µM (inactive)	> 100 µM (inactive)	> 100 µM (inactive)	> 100 µM (inactive)	> 100 µM (inactive)	> 100 µM (inactive)	> 100 µM (inactive)	> 100 µM (inactive)	> 100 µM (inactive)	> 100 µM (inactive)	> 100 µM (inactive)	> 100 µM (inactive)	
O=C(Nc1cc(Cl)c(Cl)cc1Cl)C(=O)C(C(=O)c1ccc(Cl)c(Cl)c1)C1OC(=O)c2ccccc21 (centres undefined)	13.4 µM (inactive)	17.2 µM (inactive)	14.5 µM (inactive)	5.35 µM (inactive)	4.2 µM (inactive)	7.45 µM (inactive)	> 10 µM (inactive)	3.07 µM (inactive)	10.7 µM (inactive)	8.3 µM (inactive)	15.7 µM (inactive)		21.6 µM (inactive)	15.5 µM (inactive)		13.9 µM (inactive)	15.6 µM (inactive)
CC(C)(C)C1=Nc2c(Br)cc(C(C)(C)C)cc2C(C(F)(F)F)(C(F)(F)F)O1	35.3 µM (inactive)		45 µM (inactive)	32.7 µM (inactive)	39.4 µM (inactive)		> 100 µM (inactive)	> 100 µM (inactive)	80.5 µM (inactive)	22.5 µM (inactive)	> 10 µM (inactive)	32.7 µM (inactive)	38.4 µM (inactive)	70.8 µM (inactive)	> 100 µM (inactive)	48 µM (inactive)	25.3 µM (inactive)
N#C/C(=C1\OC(=N)C(c2ccccc2)C1=O)c1ccccc1 (centres undefined)	25 µM (inactive)	> 100 µM (inactive)	16.3 µM (inactive)	15.9 µM (inactive)	22.6 µM (inactive)	> 64.3 µM (inactive)	> 10 µM (inactive)	> 100 µM (inactive)	27.9 µM (inactive)	17.9 µM (inactive)	48.3 µM (inactive)	13.3 µM (inactive)	35 µM (inactive)	> 100 µM (inactive)	28.3 µM (inactive)	23 µM (inactive)	22.9 µM (inactive)
COc1ccc(NC(=O)CC/C(CC(=O)C(C)(C)C)=N\NC(=O)C(N)=O)cc1	> 100 µM (inactive)		> 100 µM (inactive)	> 100 µM (inactive)	84.9 µM (inactive)	> 100 µM (inactive)	> 100 µM (inactive)	> 100 µM (inactive)	> 100 µM (inactive)	> 100 µM (inactive)	> 100 µM (inactive)	> 100 µM (inactive)	> 100 µM (inactive)	> 100 µM (inactive)		> 100 µM (inactive)	
N#C/C(=C/c1ccc2c(c1)OCO2)C(=O)c1ccccc1	> 100 µM (inactive)	> 100 µM (inactive)	> 100 µM (inactive)	> 100 µM (inactive)	> 100 µM (inactive)		> 100 µM (inactive)	> 100 µM (inactive)	> 100 µM (inactive)		> 100 µM (inactive)	> 100 µM (inactive)	> 100 µM (inactive)	> 100 µM (inactive)	> 100 µM (inactive)	> 100 µM (inactive)	> 100 µM (inactive)
COC(=O)C1CCCC2(C1)OCCO2 (centres undefined)	> 100 µM (inactive)	> 100 µM (inactive)	> 100 µM (inactive)	> 100 µM (inactive)	> 100 µM (inactive)	> 100 µM (inactive)	> 100 µM (inactive)	> 100 µM (inactive)	> 100 µM (inactive)	> 100 µM (inactive)	> 100 µM (inactive)	> 100 µM (inactive)	> 100 µM (inactive)	> 100 µM (inactive)	> 100 µM (inactive)	> 100 µM (inactive)	> 100 µM (inactive)
Cc1ccc(S(=O)(=O)N/N=C(/CC(=O)c2c(C)[n+]([O-])c3ccccc3[n+]2[O-])C(=O)Nc2ccc(C)c(C)c2)cc1	> 100 µM (inactive)	> 100 µM (inactive)	25.1 µM (inactive)			> 100 µM (inactive)	> 100 µM (inactive)	41.9 µM (inactive)		> 100 µM (inactive)	> 100 µM (inactive)	> 100 µM (inactive)	34 µM (inactive)	> 100 µM (inactive)	> 100 µM (inactive)	87.1 µM (inactive)	29.6 µM (inactive)
Nc1nc(Cl)cc(NCC(O)CO)n1 (centres undefined)	> 100 µM (inactive)	> 100 µM (inactive)		> 100 µM (inactive)	> 100 µM (inactive)	> 100 µM (inactive)	> 100 µM (inactive)	> 100 µM (inactive)	> 100 µM (inactive)	> 100 µM (inactive)	> 100 µM (inactive)	> 100 µM (inactive)	> 100 µM (inactive)	> 100 µM (inactive)	> 100 µM (inactive)	> 100 µM (inactive)	> 100 µM (inactive)
Cc1ccccc1/C=C/C(=O)c1ccccc1	16.3 µM (inactive)	16.4 µM (inactive)	18.8 µM (inactive)	29.6 µM (inactive)	20.6 µM (inactive)	20.5 µM (inactive)	17.6 µM (inactive)	17.8 µM (inactive)	25.2 µM (inactive)		15.9 µM (inactive)	18.7 µM (inactive)	> 10 µM (inactive)	16.5 µM (inactive)	19.5 µM (inactive)	22.5 µM (inactive)	24.9 µM (inactive)
CCOC(=O)C1([Se]c2ccccc2)CCCC1=O (centres undefined)	14.2 µM (inactive)	> 100 µM (inactive)	20.3 µM (inactive)	15.2 µM (inactive)	33.5 µM (inactive)	29 µM (inactive)	17.4 µM (inactive)	27.9 µM (inactive)	16.8 µM (inactive)	7.82 µM (inactive)	11.7 µM (inactive)	18.9 µM (inactive)	15 µM (inactive)	44.1 µM (inactive)	23.6 µM (inactive)	43.7 µM (inactive)	23.3 µM (inactive)
COc1ccccc1NC(=O)C1=C(C)NC(C)=C(C(=O)Nc2ccccc2OC)C1C1=CC=COC1	11.5 µM (inactive)	6.17 µM (inactive)	9.23 µM (inactive)	7.87 µM (inactive)	3.78 µM (inactive)	> 100 µM (inactive)	23.9 µM (inactive)	3.92 µM (inactive)	14.6 µM (inactive)		13.6 µM (inactive)	18.8 µM (inactive)	60.7 µM (inactive)	19.1 µM (inactive)	23 µM (inactive)	13.6 µM (inactive)	13.2 µM (inactive)
COC1CC(O)C(OC(=O)c2ccccc2)C(C)O1 (centres undefined)	> 100 µM (inactive)	> 100 µM (inactive)		> 100 µM (inactive)	> 100 µM (inactive)	> 100 µM (inactive)	> 100 µM (inactive)	> 100 µM (inactive)	> 100 µM (inactive)		> 100 µM (inactive)	> 100 µM (inactive)	> 100 µM (inactive)	> 100 µM (inactive)		> 10 µM (inactive)	> 100 µM (inactive)
COc1ccc(-c2cc(=O)c3cc(C)c(C)c(C(=O)O)c3o2)cc1	> 100 µM (inactive)	> 100 µM (inactive)	17.9 µM (inactive)	> 100 µM (inactive)	> 100 µM (inactive)		> 100 µM (inactive)	> 100 µM (inactive)	> 100 µM (inactive)	> 100 µM (inactive)		> 100 µM (inactive)	> 100 µM (inactive)	> 100 µM (inactive)	> 100 µM (inactive)	> 100 µM (inactive)	> 100 µM (inactive)
CC1(c2cccc(C3CC4(CCC3=O)OCCCCO4)c2)OCCO1 (centres undefined)	> 100 µM (inactive)	> 100 µM (inactive)	> 100 µM (inactive)	> 100 µM (inactive)	> 100 µM (inactive)	> 100 µM (inactive)	> 100 µM (inactive)	> 100 µM (inactive)	> 100 µM (inactive)		> 100 µM (inactive)	> 100 µM (inactive)	> 100 µM (inactive)	> 100 µM (inactive)	92.7 µM (inactive)	> 100 µM (inactive)	> 100 µM (inactive)
CCc1c(OC(C)=O)c2c(NC3OCC(OC(C)=O)C(OC(C)=O)C3OC(C)=O)nc(SC)nc2oc1=O (centres undefined)	> 100 µM (inactive)	> 100 µM (inactive)	> 100 µM (inactive)	> 100 µM (inactive)	> 100 µM (inactive)	> 100 µM (inactive)	> 100 µM (inactive)	> 100 µM (inactive)	> 100 µM (inactive)	> 100 µM (inactive)			> 100 µM (inactive)	> 100 µM (inactive)	> 100 µM (inactive)	> 100 µM (inactive)	> 100 µM (inactive)
COc1ccc(OC)c2cc(C3(C)SCCCS3)ccc12	73.6 µM (inactive)	> 100 µM (inactive)	> 100 µM (inactive)	71 µM (inactive)	53.5 µM (inactive)		84.3 µM (inactive)	78.3 µM (inactive)	> 100 µM (inactive)	20.5 µM (inactive)	> 100 µM (inactive)	> 100 µM (inactive)	> 100 µM (inactive)	> 100 µM (inactive)	56.6 µM (inactive)	> 100 µM (inactive)	69.3 µM (inactive)
COc1ncn(C2C=C(CO)C(O)C2O)c(=O)n1 (centres undefined)	> 100 µM (inactive)	> 100 µM (inactive)	> 100 µM (inactive)		> 100 µM (inactive)	> 100 µM (inactive)		> 100 µM (inactive)	> 100 µM (inactive)	> 100 µM (inactive)	> 100 µM (inactive)	> 100 µM (inactive)	> 100 µM (inactive)	< 0.01 µM (active)	> 100 µM (inactive)	> 100 µM (inactive)	> 100 µM (inactive)
